Test results as given in ChEMBL document CHEMBL3045748, “A novel and eco-friendly procedure for the synthesis of some pyrazolo-thiadiazolo-pyrimidinones and its in vitro anti-bacterial activity” (2012).

Assays:
Assay type in all cases: functional
Conditions in all cases: read-out: DIZ
[1] = tested on: Staphylococcus aureus; experiment: Antibacterial activity against Staphylococcus aureus at 50 ug after 18 hr by Kirby-Bauer's disk diffusion assay
[2] = tested on: Escherichia coli; experiment: Antibacterial activity against Escherichia coli at 50 ug after 18 hr by Kirby-Bauer's disk diffusion assay
[3] = tested on: Klebsiella; experiment: Antibacterial activity against Klebsiella at 50 ug after 18 hr by Kirby-Bauer's disk diffusion assay
[4] = tested on: Bacillus subtilis; experiment: Antibacterial activity against Bacillus subtilis at 50 ug after 18 hr by Kirby-Bauer's disk diffusion assay

Row | SMILES | zone of inhibition at 50 µg/disc [1] | zone of inhibition at 50 µg/disc [2] | zone of inhibition at 50 µg/disc [3] | zone of inhibition at 50 µg/disc [4]
1 | O=c1c2cnn(-c3ccccc3)c2nc2sc(CNCc3ccco3)nn12 | 20 mm | 8.5 mm | 13 mm | 18.5 mm
2 | O=c1c2cnn(-c3ccccc3)c2nc2sc(CN3CCOCC3)nn12 | 7.5 mm | 9 mm | 14.5 mm | 7 mm
3 | O=c1c2cnn(-c3ccccc3)c2nc2sc(CNc3ccccc3)nn12 | 14.5 mm | 10.5 mm | 12.5 mm | 14 mm
4 | Cc1cccc(NCc2nn3c(=O)c4cnn(-c5ccccc5)c4nc3s2)c1 | 16.5 mm | 9.5 mm | 12 mm | 17 mm
5 | COc1ccc(NCc2nn3c(=O)c4cnn(-c5ccccc5)c4nc3s2)cc1 | 15.5 mm | 11.5 mm | 14 mm | 15.5 mm
6 | CNCc1nn2c(=O)c3cnn(-c4ccccc4)c3nc2s1 | 13.5 mm | 11 mm | 11.5 mm | 6.5 mm
7 | CCNCc1nn2c(=O)c3cnn(-c4ccccc4)c3nc2s1 | 18.5 mm | 10.5 mm | 12 mm | 16 mm
8 | CCCCCCNCc1nn2c(=O)c3cnn(-c4ccccc4)c3nc2s1 | 17.5 mm | 11 mm | 11.5 mm | 20.5 mm
9 | CC1(C)S[C@@H]2[C@H](NC(=O)[C@H](N)c3ccccc3)C(=O)N2[C@H]1C(=O)O [AMPICILLIN] | 22.5 mm | 18.5 mm | 24.5 mm | 23.3 mm
